From ChEMBL document CHEMBL3596129, “Osthol and curcumin as inhibitors of human Pgp and multidrug efflux pumps of Staphylococcus aureus: reversing the resistance against frontline antibacterial drugs” (Medchemcomm, 2014)

Assays:
Staphylococcus aureus [1] = experiment: Inhibition of TetK overexpressed in Staphylococcus aureus K2192 assessed as tetracycline MIC at 25 uM after 24 hrs by broth checkerboard method (reference value: 32 ug/ml)
Staphylococcus aureus [2] = experiment: Inhibition of TetK overexpressed in Staphylococcus aureus K2192 assessed as decrease in tetracycline MIC at 25 uM after 24 hrs by broth checkerboard method relative to control
[3] = target: T1, Quinolone resistance protein NorA (Staphylococcus aureus) (UniProt P0A0J7); experiment: Inhibition of NorA overexpressed in Staphylococcus aureus SA1199B assessed as ciprofloxacin MIC at 25 uM after 24 hrs by broth checkerboard method (reference value: 8 ug/ml)
T1 sequence (whole entry): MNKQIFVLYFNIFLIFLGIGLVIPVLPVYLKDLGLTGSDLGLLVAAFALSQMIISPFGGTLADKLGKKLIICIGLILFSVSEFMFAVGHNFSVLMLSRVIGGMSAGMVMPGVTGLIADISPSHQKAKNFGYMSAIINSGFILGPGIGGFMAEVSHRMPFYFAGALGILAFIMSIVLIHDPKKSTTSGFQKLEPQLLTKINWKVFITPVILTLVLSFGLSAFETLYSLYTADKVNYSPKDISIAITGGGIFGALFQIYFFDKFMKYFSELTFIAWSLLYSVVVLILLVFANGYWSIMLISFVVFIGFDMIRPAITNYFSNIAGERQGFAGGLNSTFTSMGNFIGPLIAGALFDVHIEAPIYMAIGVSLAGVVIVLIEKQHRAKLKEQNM

[4] = target: T2, ATP-dependent translocase ABCB1 (Homo sapiens, UniProt P08183); experiment: Inhibition of P-gp in human LS180 cells at 50 uM after 90 mins by rhodamine123 cell exclusion method; type: cell-based; conditions: ls180, 1.5 h
[5] = target: T1, Quinolone resistance protein NorA (Staphylococcus aureus); experiment: Inhibition of NorA overexpressed in Staphylococcus aureus SA1199B assessed as decrease in ciprofloxacin MIC at 25 uM after 24 hrs by broth checkerboard method relative to control
Staphylococcus aureus [6] = experiment: Inhibition of MsrA overexpressed in Staphylococcus aureus K2191 assessed as decrease in erythromycin MIC at 25 uM after 24 hrs by broth checkerboard method relative to control
[7] = target: T3, Fluoroquinolone resistance protein (Staphylococcus aureus) (UniProt A0A0C5K5S3); experiment: Inhibition of MdeA overexpressed in Staphylococcus aureus Mupr-1 assessed as mupirocin MIC at 25 uM after 24 hrs by broth checkerboard method (reference value: 256 ug/ml)
T3 sequence (whole entry): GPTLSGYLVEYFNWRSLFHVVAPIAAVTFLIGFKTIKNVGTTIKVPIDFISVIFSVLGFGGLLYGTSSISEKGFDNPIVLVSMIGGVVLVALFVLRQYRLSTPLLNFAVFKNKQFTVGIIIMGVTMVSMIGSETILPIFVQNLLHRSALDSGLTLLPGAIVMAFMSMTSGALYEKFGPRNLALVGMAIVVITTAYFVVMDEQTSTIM

Staphylococcus aureus [8] = experiment: Inhibition of MsrA overexpressed in Staphylococcus aureus K2191 assessed as erythromycin MIC at 25 uM after 24 hrs by broth checkerboard method (reference value: 64 ug/ml)
[9] = target: T3, Fluoroquinolone resistance protein (Staphylococcus aureus); experiment: Inhibition of MdeA overexpressed in Staphylococcus aureus Mupr-1 assessed as decrease in mupirocin MIC at 25 uM after 24 hrs by broth checkerboard method relative to control
[10] = target: T2, ATP-dependent translocase ABCB1; experiment: Inhibition of P-gp in human LS180 cells after 90 mins by rhodamine123 cell exclusion method; type: cell-based
Staphylococcus aureus [11] = experiment: Inhibition of TetK overexpressed in Staphylococcus aureus K2192 assessed as decrease in tetracycline MIC at 50 uM after 24 hrs by broth checkerboard method relative to control
[12] = target: T1, Quinolone resistance protein NorA (Staphylococcus aureus); experiment: Inhibition of NorA overexpressed in Staphylococcus aureus SA1199B assessed as decrease in ciprofloxacin MIC at 50 uM after 24 hrs by broth checkerboard method relative to control
[13] = target: T1, Quinolone resistance protein NorA (Staphylococcus aureus); experiment: Inhibition of NorA overexpressed in Staphylococcus aureus SA1199B assessed as ciprofloxacin MIC at 50 uM after 24 hrs by broth checkerboard method (reference value: 8 ug/ml)
Staphylococcus aureus [14] = experiment: Inhibition of MsrA overexpressed in Staphylococcus aureus K2191 assessed as decrease in erythromycin MIC at 50 uM after 24 hrs by broth checkerboard method relative to control
[15] = target: T3, Fluoroquinolone resistance protein (Staphylococcus aureus); experiment: Inhibition of MdeA overexpressed in Staphylococcus aureus Mupr-1 assessed as mupirocin MIC at 50 uM after 24 hrs by broth checkerboard method (reference value: 256 ug/ml)
[16] = target: T3, Fluoroquinolone resistance protein (Staphylococcus aureus); experiment: Inhibition of MdeA overexpressed in Staphylococcus aureus Mupr-1 assessed as decrease in mupirocin MIC at 50 uM after 24 hrs by broth checkerboard method relative to control
Staphylococcus aureus [17] = experiment: Inhibition of MsrA overexpressed in Staphylococcus aureus K2191 assessed as erythromycin MIC at 50 uM after 24 hrs by broth checkerboard method (reference value: 64 ug/ml)
Staphylococcus aureus [18] = experiment: Inhibition of TetK overexpressed in Staphylococcus aureus K2192 assessed as tetracycline MIC at 50 uM after 24 hrs by broth checkerboard method (reference value: 32 ug/ml)
P-gp [19] = experiment: Substrate activity at P-gp in human Caco2 cells assessed as apparent permeability across basolateral to apical side at 10 uM after 90 mins by HPLC with mass spectrometric method; type: ADME, cell-based; conditions: Caco-2
P-gp [20] = experiment: Substrate activity at P-gp in human Caco2 cells assessed as efflux ratio of apparent permeability across basolateral to apical side over apical to basolateral side at 10 uM after 90 mins by HPLC with mass spectrometric method; type: ADME, cell-based; conditions: Caco-2
CYP3A4 = CYP3A4 (Homo sapiens, UniProt P08684); experiment: Inhibition of human CYP3A4 at 10 uM preincubated for 10 mins with cofactor followed by mixture of enzyme-substrate addition by fluorescence assay relative to control; type: ADME
Sequence of CYP3A4 (P08684 whole entry): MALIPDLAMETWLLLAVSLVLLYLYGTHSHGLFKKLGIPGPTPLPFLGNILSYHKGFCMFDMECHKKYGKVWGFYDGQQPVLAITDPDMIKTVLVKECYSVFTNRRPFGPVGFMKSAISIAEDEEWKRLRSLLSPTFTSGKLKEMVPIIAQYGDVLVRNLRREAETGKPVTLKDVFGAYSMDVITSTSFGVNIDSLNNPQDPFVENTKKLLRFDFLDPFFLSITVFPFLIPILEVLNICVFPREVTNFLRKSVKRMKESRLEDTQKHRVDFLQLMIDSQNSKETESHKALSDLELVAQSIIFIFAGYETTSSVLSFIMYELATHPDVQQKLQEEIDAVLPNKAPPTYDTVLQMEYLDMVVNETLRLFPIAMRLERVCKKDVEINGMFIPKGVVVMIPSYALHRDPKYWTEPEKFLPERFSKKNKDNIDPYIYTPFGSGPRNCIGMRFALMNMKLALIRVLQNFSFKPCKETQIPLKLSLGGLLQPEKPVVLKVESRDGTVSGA

CYP2D6 = CYP2D6 (Homo sapiens, UniProt P10635); experiment: Inhibition of human CYP2D6 at 10 uM preincubated for 10 mins with cofactor followed by mixture of enzyme-substrate addition by fluorescence assay relative to control; type: ADME
Sequence of CYP2D6 (P10635 whole entry): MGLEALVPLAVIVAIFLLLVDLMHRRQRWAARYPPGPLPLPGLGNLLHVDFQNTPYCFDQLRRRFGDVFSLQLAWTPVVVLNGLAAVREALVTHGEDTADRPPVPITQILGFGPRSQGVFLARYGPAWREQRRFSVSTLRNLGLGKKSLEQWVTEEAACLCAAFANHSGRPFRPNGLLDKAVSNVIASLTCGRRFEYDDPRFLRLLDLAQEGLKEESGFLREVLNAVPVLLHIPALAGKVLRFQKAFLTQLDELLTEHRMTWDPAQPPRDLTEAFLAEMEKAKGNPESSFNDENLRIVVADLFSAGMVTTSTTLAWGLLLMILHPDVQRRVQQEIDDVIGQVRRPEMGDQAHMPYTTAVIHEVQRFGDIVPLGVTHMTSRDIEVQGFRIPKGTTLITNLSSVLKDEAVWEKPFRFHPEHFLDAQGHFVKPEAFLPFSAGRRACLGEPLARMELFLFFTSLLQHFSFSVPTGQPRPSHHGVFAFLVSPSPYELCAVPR

CYP2C9 = CYP2C9 (Homo sapiens, UniProt P11712); experiment: Inhibition of human CYP2C9 at 10 uM preincubated for 10 mins with cofactor followed by mixture of enzyme-substrate addition by fluorescence assay relative to control; type: ADME
Sequence of CYP2C9 (P11712 whole entry): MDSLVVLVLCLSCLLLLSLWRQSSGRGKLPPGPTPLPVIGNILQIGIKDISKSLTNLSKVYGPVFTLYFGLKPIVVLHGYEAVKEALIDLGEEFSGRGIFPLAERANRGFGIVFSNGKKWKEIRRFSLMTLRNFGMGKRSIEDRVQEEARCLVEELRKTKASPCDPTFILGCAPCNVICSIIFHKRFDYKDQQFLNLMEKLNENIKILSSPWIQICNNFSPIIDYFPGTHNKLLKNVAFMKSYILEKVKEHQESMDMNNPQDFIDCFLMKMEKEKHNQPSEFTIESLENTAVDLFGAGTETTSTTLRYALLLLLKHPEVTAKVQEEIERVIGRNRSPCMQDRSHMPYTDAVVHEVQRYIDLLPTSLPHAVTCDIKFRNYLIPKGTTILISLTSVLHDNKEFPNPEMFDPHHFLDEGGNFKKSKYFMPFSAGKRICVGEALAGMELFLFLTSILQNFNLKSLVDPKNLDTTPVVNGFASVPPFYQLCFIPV

[21] = target: T3, Fluoroquinolone resistance protein (Staphylococcus aureus); experiment: Inhibition of MdeA overexpressed in Staphylococcus aureus Mupr-1 assessed as decrease in mupirocin MIC at 12.5 uM after 24 hrs by broth checkerboard method relative to control
[22] = target: T1, Quinolone resistance protein NorA (Staphylococcus aureus); experiment: Inhibition of NorA overexpressed in Staphylococcus aureus SA1199B assessed as decrease in ciprofloxacin MIC at 12.5 uM after 24 hrs by broth checkerboard method relative to control
[23] = target: T1, Quinolone resistance protein NorA (Staphylococcus aureus); experiment: Inhibition of NorA overexpressed in Staphylococcus aureus SA1199B assessed as ciprofloxacin MIC at 12.5 uM after 24 hrs by broth checkerboard method (reference value: 8 ug/ml)
[24] = target: T3, Fluoroquinolone resistance protein (Staphylococcus aureus); experiment: Inhibition of MdeA overexpressed in Staphylococcus aureus Mupr-1 assessed as mupirocin MIC at 12.5 uM after 24 hrs by broth checkerboard method (reference value: 256 ug/ml)
Staphylococcus aureus [25] = experiment: Inhibition of MsrA overexpressed in Staphylococcus aureus K2191 assessed as erythromycin MIC at 12.5 uM after 24 hrs by broth checkerboard method (reference value: 64 ug/ml)
Staphylococcus aureus [26] = experiment: Inhibition of TetK overexpressed in Staphylococcus aureus K2192 assessed as decrease in tetracycline MIC at 12.5 uM after 24 hrs by broth checkerboard method relative to control
Staphylococcus aureus [27] = experiment: Inhibition of TetK overexpressed in Staphylococcus aureus K2192 assessed as tetracycline MIC at 12.5 uM after 24 hrs by broth checkerboard method (reference value: 32 ug/ml)
Staphylococcus aureus [28] = experiment: Inhibition of MsrA overexpressed in Staphylococcus aureus K2191 assessed as decrease in erythromycin MIC at 12.5 uM after 24 hrs by broth checkerboard method relative to control

Compound | MIC (Staphylococcus aureus [1]) [µg/mL] | fold change (FC) (Staphylococcus aureus [2]) | MIC [3] [µg/mL] | inhibition (INH) [4] | fold change (FC) [5] | fold change (FC) (Staphylococcus aureus [6]) | MIC [7] [µg/mL] | MIC (Staphylococcus aureus [8]) [µg/mL] | fold change (FC) [9] | IC50 [10] [µM] | further results
C/C=C(\C)C(=O)OC1c2c(ccc3ccc(=O)oc23)OC(C)(C)C1OC(=O)/C(C)=C/C (stereo not given) | 32 | 0 | 4 | Not Active | 2 | 0 | 256 | 64 | 0 | 16 | 
CC(=O)Oc1cc(OC(C)=O)c2ccc(=O)oc2c1CC=C(C)C | 16 | 2 | 4 | Not Active | 2 | 4 | 256 | 16 | 0 | 44 | 
CC(C)=CCc1c(O)cc(O)c2ccc(=O)oc12 | 32 | 0 | 4 | Not Active | 2 | 0 | 256 | 64 | 0 |  | 
C=CC(C)(C)c1cc2cc3c(cc2oc1=O)OC(C)(C)C=C3 | 16 | 2 | 2 | Not Active | 4 | 0 | 256 | 64 | 0 | 15 | 
CCC/C=C1\OC(=O)C2CC3CCC12C1(OC(=O)C2=C1CCCC2)C3CCC (stereo not given) |  |  |  | Not Active |  |  |  |  |  |  | fold change (FC) (Staphylococcus aureus [11]): 0; fold change (FC) [12]: 0; MIC [13]: 8 µg/mL; fold change (FC) (Staphylococcus aureus [14]): 0; MIC [15]: 256 µg/mL; fold change (FC) [16]: 0; MIC (Staphylococcus aureus [17]): 64 µg/mL; MIC (Staphylococcus aureus [18]): 32 µg/mL
O=C(/C=C/C=C/c1ccc2c(c1)OCO2)N1CCCCC1 | 32 | 0 | 4 |  | 2 | 0 | 256 | 64 | 0 |  | 
COc1cc(/C=C/C(=O)CC(=O)/C=C/c2ccc(O)c(OC)c2)ccc1O [CURCUMIN] | 32 | 0 | 1 | Not Active | 8 | 0 | 256 | 64 | 0 | 62 | 
C[C@H]1O[C@@H](O[C@H]2[C@@H](O)C[C@H](O[C@H]3[C@@H](O)C[C@H](O[C@H]4CC[C@@]5(C)[C@H](CC[C@@H]6[C@@H]5C[C@@H](O)[C@]5(C)[C@@H](C7=CC(=O)OC7)CC[C@]65O)C4)O[C@@H]3C)O[C@@H]2C)C[C@H](O)[C@@H]1O [DIGOXIN] |  |  |  |  |  |  |  |  |  |  | Papp B→A at 1.5 h, 10 µM (P-gp [19]): 12.4 ×10⁻⁶ cm/s; efflux ratio at 1.5 h, 10 µM (P-gp [20]): 41.5
CC(=O)N1CCN(c2ccc(OCC3COC(Cn4ccnc4)(c4ccc(Cl)cc4Cl)O3)cc2)CC1 (stereo not given) [KETOCONAZOLE] |  |  |  |  |  |  |  |  |  |  | inhibition at 10 µM (CYP3A4): 95.2%
CC(C)=CCc1c(O)ccc2ccc(=O)oc12 [OSTHENOL] |  |  |  | Not Active |  |  |  |  |  |  | fold change (FC) (Staphylococcus aureus [11]): 0; fold change (FC) [12]: 4; MIC [13]: 2 µg/mL; fold change (FC) (Staphylococcus aureus [14]): 0; MIC [15]: 256 µg/mL; fold change (FC) [16]: 0; MIC (Staphylococcus aureus [17]): 64 µg/mL; MIC (Staphylococcus aureus [18]): 32 µg/mL
Fc1ccc([C@@H]2CCNC[C@H]2COc2ccc3c(c2)OCO3)cc1 [PAROXETINE] |  |  |  |  |  |  |  |  |  |  | inhibition at 10 µM (CYP2D6): 96.5%
CC(C)=CCOc1c2occc2cc2ccc(=O)oc12 [PENTOSALEN] | 32 | 0 | 4 | Not Active | 2 | 0 | 128 | 64 | 2 | 28 | 
COc1c2ccoc2c(OCC=C(C)C)c2oc(=O)ccc12 [PHELLOPTERIN] | 32 | 0 | 4 | Not Active | 2 | 2 | 256 | 32 | 0 | 32 | 
COc1c(C(=O)/C=C(\O)c2ccccc2)ccc2occc12 [PONGAMOL] | 32 | 0 | 4 | Not Active | 2 | 0 | 256 | 64 | 0 | 88 | 
Nc1ccc(S(=O)(=O)Nc2ccnn2-c2ccccc2)cc1 [SULFAPHENAZOLE] |  |  |  |  |  |  |  |  |  |  | inhibition at 10 µM (CYP2C9): 93.7%
COc1ccc(-c2cc(=O)c3c(OC)c(OC)c(OC)c(OC)c3o2)cc1 [TANGERETIN] |  |  |  | Not Active | 2 |  |  |  |  |  | fold change (FC) [21]: 2; fold change (FC) [22]: 2; MIC [23]: 4 µg/mL; MIC [24]: 128 µg/mL; MIC (Staphylococcus aureus [25]): 32 µg/mL; fold change (FC) (Staphylococcus aureus [26]): 0; MIC (Staphylococcus aureus [27]): 32 µg/mL; fold change (FC) (Staphylococcus aureus [28]): 2
